The values that follow come from ChEMBL document CHEMBL5606460, “ASAP - DENV-2 NS2B-NS3 protease fluorescence single point” (2024).

Molecules are shown by their SMILES.

The first assay addresses Genome polyprotein (dengue virus type 2) (UniProt P29990). Conditions: Thailand/16681/1984, Concentration 50.0 uM, Number of replicates 1.0.
Take `c1csc(-c2nnc(Sc3ncnc4sccc34)o2)c1`: the inhibition is -7.64%.

Still in this assay, the particulars now being: Thailand/16681/1984, Concentration 100.0 uM, Number of replicates 1.0.
As to `c1csc(-c2nnc(Sc3ncnc4sccc34)o2)c1`, the inhibition was found to be 5.5%.

The same assay, now with this note: Thailand/16681/1984, Concentration 150.0 uM, Number of replicates 1.0.
For `c1csc(-c2nnc(Sc3ncnc4sccc34)o2)c1`, the inhibition is 1.07%.

Staying with this assay, now noted: Thailand/16681/1984, Concentration 200.0 uM, Number of replicates 1.0.
Turning to `c1csc(-c2nnc(Sc3ncnc4sccc34)o2)c1`, the inhibition came to 9.38%.

Another assay shares this target. Conditions: Thailand/16681/1984, Concentration 25.0 uM, Number of replicates 1.0.
As for `O=Cc1ccc(N2CCC(C(=O)O)CC2)cc1`, the inhibition was 47.6%.

As to `O=Cc1nc(-c2ccccc2Cl)n2ccccc12`, the inhibition stood at 20.2%.

For the molecule `CC[C@H]1CO[C@H](C)CN1c1ccc(C=O)cn1`, the inhibition came out at 41.1%. Same read-out and setting: next, `Nc1ccc2ccc(B(O)O)cc2c1`: 15.2%; `O=Cc1ccc(N2CCC(C(=O)O)CC2)o1`: 40.9%. Same read-out and setting: the same measure for `CN(C)c1ccc(C=C(C#N)C(N)=O)cc1`: 20.8%. Turning to `O=Cc1ccc(N2CCCCC2)cc1`, the inhibition amounted to 37.1%. Same read-out and setting: next, `O=Cc1ccc(N2CCCCCC2)cc1`: 32.8%. Still for that read-out and setting: next, `Cc1cc(NS(=O)(=O)c2ccc(S(=O)(=O)F)cc2)c[nH]c1=O`: 19.6%; `Cc1nc(C=O)c2ccccn12`: 33.3%. Same read-out and setting: the same measure for `Cc1c(C=O)c2ccccn2c1C(=O)c1ccncc1`: 41.1%. Regarding `Cc1c(C=O)c2ccccn2c1C#N`, the inhibition turned out to be 30.7%.
